Read-outs that look alike come from different tables or passages of the source.
Columns and labels:
[1] = test system: Influenza strain A549_A/WSN/33 (H1N1); assay: Influenza antiviral assay (neuraminidase fluorescence readout); type: cell-based, Influenza virus; settings: read-out: % Inhibition (EC50 class, Table 2)
[2] = target: Full length EN PA (influenza PA endonuclease) (Influenza A virus, UniProt P15659); assay: EN PA FRET inhibition assay; type: biochemical; settings: FRET probe, mean of a minimum of two independent experiments, read-out: Potency (IC50 class, Table 3)

| Structure (SMILES) | EC50 ([1]; Influenza A virus) [nM] | IC50 [2] [nM] | EC50 [1] [nM] |
| --- | --- | --- | --- |
| C[C@@H](N1CC(C(c2ccccc2)c2ccccc2)n2ncc(=O)c(O)c2C1=O)C(F)(F)F (some centres unmarked) [Compound 35-B] | < 20000 | 250 to 1000 | – |
| CC(C)N1C[C@H]([C@@H](c2ccccc2)n2ccc(C#N)n2)n2ncc(=O)c(O)c2C1=O [Compound 127-C] | – | 250 to 1000 | < 20000 |
| CCN1C[C@@H](C(c2ccccc2)c2ccccc2)n2ncc(=O)c(O)c2C1=O [Compound 5-B] | < 20000 | 250 to 1000 | – |
| CN1C[C@H]([C@@H](c2ccccc2)n2cnc(I)c2)n2ncc(=O)c(O)c2C1=O [Compound 107-A] | 20000 to 100000 | < 250 | – |
| CCN1CC(C(c2ccccc2)c2cccc(F)c2)n2ncc(=O)c(O)c2C1=O (centres unmarked) [Compound 24] | < 20000 | < 250 | – |
| C[C@H](N1CC(C(c2ccccc2)c2ccccc2)n2ncc(=O)c(O)c2C1=O)C(F)(F)F (some centres unmarked) [Compound 35-A] | < 20000 | < 250 | – |
| CCCN1C[C@H](C(c2ccccc2)c2ccccc2)n2ncc(=O)c(O)c2C1=O [Compound 37-A] | < 20000 | < 250 | – |
| CCN1CC(C(c2cccc(F)c2)c2cccc(F)c2)n2ncc(=O)c(O)c2C1=O (centres unmarked) [Compound 21] | < 20000 | < 250 | – |
| O=C1c2c(O)c(=O)cnn2[C@@H](C(c2cccc(F)c2)c2cccc(F)c2)CN1Cc1ccccc1 [Compound 75-A] | < 20000 | < 250 | – |
| Cc1cccc(C(c2cccc(C)c2)C2CN(C)C(=O)c3c(O)c(=O)cnn32)c1 (centres unmarked) [Compound 25] | < 20000 | < 250 | – |
| CN1CC(C2c3cccc(F)c3CCc3c(F)cccc32)n2ncc(=O)c(O)c2C1=O (centres unmarked) [Compound 83] | < 20000 | < 250 | – |
| CC(C)N1CC(C(c2ccccc2)n2ccc(C#N)n2)n2ncc(=O)c(O)c2C1=O (centres unmarked) [Compound 127] | < 20000 | < 250 | – |
| CCN1C[C@@H]([C@H](c2ccccc2)c2cccc(Cl)c2)n2ncc(=O)c(O)c2C1=O [Compound 12-E] | – | < 250 | – |
| CCC#Cc1ccn([C@@H](c2ccccc2)[C@@H]2CN(C)C(=O)c3c(O)c(=O)cnn32)n1 [Compound 125] | < 20000 | < 250 | – |
| CN1CC(C(c2ccccc2)c2cccc(CC(N)=O)c2)n2ncc(=O)c(O)c2C1=O (centres unmarked) [Compound 101] | 20000 to 100000 | < 250 | – |
| CCN1C[C@@H](C(c2cccc(Cl)c2)c2cccc(Cl)c2)n2ncc(=O)c(O)c2C1=O [Compound 39-B] | < 20000 | 250 to 1000 | – |
| CN1CC(Cc2ccccc2-c2ccccc2)n2ncc(=O)c(O)c2C1=O (centres unmarked) [Compound 19] | < 20000 | < 250 | – |
| CCC#Cc1ccn(C(c2ccccc2)C2CN(C)C(=O)c3c(O)c(=O)cnn32)n1 (centres unmarked) [Compound 117] | < 20000 | < 250 | – |
| Cc1cccc(C(c2ccccc2)C2CN(C(C)C)C(=O)c3c(O)c(=O)cnn32)c1 (centres unmarked) [Compound 50] | < 20000 | < 250 | – |
| CC(C)C(=O)Oc1c2n(ncc1=O)[C@@H](C1c3ccccc3CCc3ccccc31)CN(C)C2=O [Compound 65-A] | < 20000 | < 250 | – |
| [2H]c1c([2H])c([2H])c(C(c2c([2H])c([2H])c([2H])c([2H])c2[2H])[C@H]2CN(C(C)C)C(=O)c3c(O)c(=O)cnn32)c([2H])c1[2H] [Compound 129] | < 20000 | < 250 | – |
| CCN1C[C@@H](C(c2cccc(F)c2)c2cccc(F)c2)n2ncc(=O)c(O)c2C1=O [Compound 21-B] | < 20000 | < 250 | – |
| CN1C[C@@H]([C@H](c2ccccc2)c2cccc(OC3CC3)c2)n2ncc(=O)c(O)c2C1=O [Compound 105-C] | < 20000 | 250 to 1000 | – |
| CC(C)COC(=O)Oc1c2n(ncc1=O)[C@@H](C(c1ccccc1)c1ccccc1)CN(C(C)C)C2=O [Compound 134] | < 20000 | ≥ 1000 | – |
